According to patent US5977144A (priority 1997, dated 1999):
Entries after “also recorded” stand apart in the source; their conditions may differ. Where two headings read alike, the source gives them in different places.

Legend:
[1] = tested on: cholinesterase-staining cells in the nucleus basalis; settings: rat, in vivo
Description: Passive avoidance behavior was measured in nucleus basalis lesioned rats after intraperitoneal (IP) injections of drugs (base weight) or 0.9% saline diluent. For lesions, male 5 month old Sprague Dawley rats were anesthetized with 30 mg/kg sodium pentobarbital (IP) and then infused bilaterally with 1 μl of 5 μg/μl ibotenic acid in phosphate buffered saline, pH 7.4, into the nucleus basalis as described previously (17). Infusion coordinates were anterior 7.0 mm, lateral 2.6 mm and vertical 6.5 mm according to Paxinos and Watson (Paxinos and Watson, 1986).
Histological assessments of the ibotenic acid placements in the nucleus basalis were made after behavioral measurements, using cholinesterase staining in formalin-fixed tissues.

rat alpha7 receptor [2] = biological target: T1, rat alpha7 receptor (Rattus norvegicus, UniProt Q05941); assay: cell-based; settings: for α7 receptor activation (in words): oocyte expression system; for EC50: oocytes, read-out: α7 EC50
Description: FIG. 13A. Effects of chronic injections of DMXB or nicotine on high affinity [^3 H]ACh or [^125 I]α-bungarotoxin (BTX) binding in rat neocortices. Adult male rats were injected with saline vehicle, 1 mg/kg DMXB or 0.2 mg/kg nicotine (NIC) (IP) daily for 2 weeks. At that time, neocortices were removed and assayed for high affinity [^3 H]ACh or [^125 I]α-bungarotoxin binding as described in the text. […] Responses of rat α7 ACHR to 3-CA, 2-MeOCA and 4-MeOCA. Concentration-response relationships for the peak agonist activated currents of oocytes injected with RNA coding for the rat α7 subunit. All responses were initially measured relative to the individual oocyte-response to 500 μM ACh, applied 5 min prior to drug-application. Responses were normalized relative to the maximum response obtainable with ACh so that a response of 1 represents full efficacy. The ratio of 500 μM ACh control response to ACh maximum was taken from Papke et al., 1997.
(§1) Oocytes were prepared and recordings made as described previously (de Fiebre, et al., 1995). Frogs were anesthetized by submersion in 0.1% (3)-aminobenzoic acid ethyl ester and several lobes of the ovary surgically removed through a small incision in the abdomen wall. Oocytes were freed from the follicle cells by treatment with collagenase (in calcium-free Barth's solution: 88 mM NaCl, 1 mM KCl, 15 mM Hepes pH 7.6, 0.33 mM MgSO4, 0.1 mg/ml gentamicin sulfate) for 2 hr at room temperature and Stage 5 oocytes were isolated. Oocytes were rinsed and stored at 18° C. in Barth's saline (88 mM NaCl, 1 mM KCl, 15 mM Hepes pH 7.6, 0.3 mM Ca(NO3)2, 0.41 mM CaCl2, 0.82 mM MgSO4, 0.1 mg/ml gentamicin sulfate) before and after microinjection with RNA. Microinjection was conducted with a Drummond Scientific "Nanoject Variable" automatic injector. Oocytes were injected with a 50 nl solution of specified rat nicotinic subunit mRNA species (2-10 mg/ml; derived from the cDNA containing HIP 306 plasmid kindly provided by Dr. Jim Boulter, Salk Institute) and incubated 2-7 days at 18° C. before electrophysiological recording. electrophysiological recordings, oocytes were perfused in a Warner Instruments RC-8 recording chamber with a perfusion solution containing 115 mM NaCl, 2.5 mM KCl, 10 mM Hepes pH 7.2, 1.8 mM CaCl2 and 1 μM atropine to block muscarinic responses. Perfusion was continuous at a rate of 10 ml/min. Drags were diluted in perfusion solution and applied using a solenoid valve to switch from perfusion to drug solutions. Current responses to drug administration were studied under two electrode voltage clamp at a holding potential of -70 mV using a Dagan Corp. TEV-200 voltage clamp connected to a 386-SX IBM computer using a TL-1 DMA interface (Axon Instruments). Micropipettes were filled with 3 M KCl and had resistances of 0.5-2 MOhms. Drug responses are analyzed with PClamp software (Axon Instruments). Oocytes with resting potentials of less than -30 mV were rejected.

rat alpha4beta2 receptor [3] = biological target: T2, rat alpha4beta2 receptor (Rattus norvegicus, UniProt P09483+P12390); assay: Antagonism of alpha4beta2 receptors in oocytes (residual inhibition of ACh response after drug); format: cell-based; settings: xenopus oocytes
Description: as §1, with “Micropipettes were filled with 3 M KCl and had resistances of 0.5-2 MOhms.” left out, “Oocytes with resting potentials of less than -30 mV were rejected.” left out
(§2) Antagonist properties subsequent to agonist activity were measured as a decrease in responsiveness to ACh applied 5 min after compound-application, normalized to ACh application instead of the anabaseine-derivative (FIG. 13A AND FIG. 13B).

[4] = biological target: alpha7 receptor (high affinity alpha-bungarotoxin binding, rat brain membranes) (Rattus norvegicus, UniProt Q05941); assay: biochemical; settings: for IC50: rat brain membranes, read-out: IC50, [125I]α-bungarotoxin binding
rat alpha4beta2 receptor [5] = biological target: T2, rat alpha4beta2 receptor; assay: Activation of alpha4beta2 receptors expressed in Xenopus oocytes; format: cell-based; settings: Table 4; read-out: Oocytes Agonist α4
Description: FIG. 14A. Responses of α4β2 ACHR to 3-CA, 2-MeOCA or 4-MeOCA. Concentration-response relationships for the peak agonist activated currents of oocytes injected with RNA coding for rat α4β2 subunits. Responses are first expressed relative to the response to 10 μM ACh, applied 5 min before drug-application, then normalized to the maximum response obtainable with ACh so that a response of 1 represents full efficacy. The ratio between 10 μM ACh and maximum ACh response was determined in separate experiments.
as §1

rat alpha4beta2 receptor [6] = biological target: T2, rat alpha4beta2 receptor; assay: as above; format: cell-based; settings: read-out: alpha4beta2 activation: % response observed with 10 μM acetylcholine
rat alpha7 receptor [7] = biological target: T1, rat alpha7 receptor; assay: cell-based; set-up: Oocytes Antagonist: unit not given here; settings: for IC50: ACh applied 5 min after compound, read-out: IC50, antagonism subsequent to agonist activity; for Oocytes Antagonist: Table 4; for alpha 7 antagonism: % of antagonism of acetylcholine administered after drug: xenopus oocytes
Description: FIG. 13B. Effects of chronic injections of DMXB or nicotine on high affinity [^3 H]ACh or [^125 I]α-bungarotoxin (BTX) binding in rat neocortices. Adult male rats were injected with saline vehicle, 1 mg/kg DMXB or 0.2 mg/kg nicotine (NIC) (IP) daily for 2 weeks. At that time, neocortices were removed and assayed for high affinity [^3 H]ACh or [^125 I]α-bungarotoxin binding as described in the text. […] Responses of rat α7 AChR to 3-CA, 2-MeOCA and 4-MeOCA. […] All responses are expressed relative to the oocyte-response to 500 μM ACh applied 5 min prior to the experimental agonist application.
as §1, §2

PC12 cells [8] = format: cell-based; settings: for neurite protection during NGF-deprivation (in words): 10 μM; for Neurite Counts: 10 μM (NGF 100 ng/ml), 4 days after removal of serum and NGF, mean±SEM, * p<0.05
Description: PC12 cell-culture methods were modified from Greene and Tischler (1976). Cells were plated at 30-40% confluence and grown in Dulbecco's Modified Eagle Medium containing 10% heat-inactivated horse serum, 5% fetal bovine serum, 100 units/ml penicillin, 100 μg/ml streptomycin and 0.5 mM 1-glutamine. Cultures were maintained at 37° C., […] /6% CO2 and 90-92% humidity in culture plates pre-coated with poly-1lysine (10 g/L). Cultures were maintained for 7 days in serum-supplemented medium to which 100 ng/ml rat 2.5S NGF was added at day 1. On day 7, conditioned medium was replaced serum-free medium containing specified drugs. Four days later, cell density was estimated using the NIH Image program version 1.47 and number of neurite-expressing cells counted manually in blind fashion as described previously (Martin et al., 1994). A Nikon inverted microscope (100× magnification) was attached to a Mac II computer via a monochrome video camera (Cohu, Inc., San Diego, Calif.). Four random areas were counted per plate and there were 4 plates per treatment group, unless otherwise indicated. Neurites were defined as processes at least 2× the length of the perikaryon. To assess the reliability of the image analyses, a reticle was used for direct quantification of cells in the same view as the one analyzed in random samples.
PC12 cells were differentiated for 1 week with NGF. Drugs were administered for the 4 day interval after removal of serum and NGF. Neuites were counted and expressed as the mean±SEM of at least 3 plates/group.

[9] = biological target: T3, alpha4beta2 receptor (cytisine binding, rat brain membranes) (Rattus norvegicus, UniProt P09483+P12390); assay: biochemical; settings: 1 μM (Table 2); read-out: alpha4beta2 binding: % inhibition of cytistine binding
T3 construct: from tissue; host or cells: rat brain membranes
From the text: Further, the cinnamylidene-anabaseines displaced high affinity cytisine binding to rat brain membranes with lower affinity than other types of benzylidene-anabaseines. These observations are consistent with the cinnamylidene-anabaseines having some selectivity for alpha7 receptor subtypes over other types of nicotinic receptors, especially alpha4beta2 receptors, based on the types of receptors to which alpha-bungarotoxin and cytisine bind to in brain.

rat alpha7 receptor [10] = biological target: T1, rat alpha7 receptor; settings: cited from earlier work
[11] = tested on: animal models of learning and memory; settings: animals; cited from earlier work
rat alpha7 receptor [12] = biological target: T1, rat alpha7 receptor; settings: literature; cited from earlier work
PC12 cells [13] = format: cell-based; settings: Table 4
[14] = tested on: alpha7 nicotinic receptors
[15] = Table 4, read-out: Oocytes Agonist α7
[16] = read-out: alpha7 activation: % response observed with 500 μM acetylcholine
[17] = 1 μM (Table 2), read-out: alpha7 binding: % inhibition of alphabungarotoxin binding
[18] = Table 4, read-out: Receptor Binding α7

T2 sequence (P09483 31-630): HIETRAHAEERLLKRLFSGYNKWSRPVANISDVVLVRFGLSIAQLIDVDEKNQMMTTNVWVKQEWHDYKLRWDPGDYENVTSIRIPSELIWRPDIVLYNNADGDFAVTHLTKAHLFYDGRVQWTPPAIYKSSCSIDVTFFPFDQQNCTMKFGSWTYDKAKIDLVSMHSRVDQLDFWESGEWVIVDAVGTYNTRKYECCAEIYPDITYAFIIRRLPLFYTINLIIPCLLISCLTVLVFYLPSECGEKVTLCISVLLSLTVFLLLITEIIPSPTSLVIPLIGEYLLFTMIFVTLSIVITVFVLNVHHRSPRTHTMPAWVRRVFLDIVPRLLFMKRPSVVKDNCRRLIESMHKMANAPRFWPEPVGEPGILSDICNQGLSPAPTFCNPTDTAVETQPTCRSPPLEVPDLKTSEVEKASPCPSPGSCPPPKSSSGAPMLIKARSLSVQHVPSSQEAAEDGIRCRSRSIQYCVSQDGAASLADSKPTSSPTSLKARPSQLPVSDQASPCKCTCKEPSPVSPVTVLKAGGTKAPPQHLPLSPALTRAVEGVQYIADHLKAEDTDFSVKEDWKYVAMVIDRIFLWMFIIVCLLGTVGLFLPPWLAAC
T2 sequence (P12390 25-500): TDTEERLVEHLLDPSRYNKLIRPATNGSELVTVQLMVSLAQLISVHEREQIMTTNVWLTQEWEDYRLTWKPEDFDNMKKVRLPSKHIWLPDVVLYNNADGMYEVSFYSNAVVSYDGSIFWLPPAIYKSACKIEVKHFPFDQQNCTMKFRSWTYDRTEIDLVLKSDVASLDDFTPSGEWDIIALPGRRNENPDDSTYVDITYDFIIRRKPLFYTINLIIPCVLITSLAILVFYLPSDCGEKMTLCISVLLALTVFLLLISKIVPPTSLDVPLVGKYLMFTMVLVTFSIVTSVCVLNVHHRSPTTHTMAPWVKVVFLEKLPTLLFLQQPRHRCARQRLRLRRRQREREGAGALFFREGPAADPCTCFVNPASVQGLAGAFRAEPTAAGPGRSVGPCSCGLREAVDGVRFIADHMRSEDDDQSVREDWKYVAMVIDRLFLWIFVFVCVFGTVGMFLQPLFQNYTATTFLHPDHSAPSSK
alpha7 receptor (high affinity alpha-bungarotoxin binding, rat brain membranes), sequence (Q05941 23-502): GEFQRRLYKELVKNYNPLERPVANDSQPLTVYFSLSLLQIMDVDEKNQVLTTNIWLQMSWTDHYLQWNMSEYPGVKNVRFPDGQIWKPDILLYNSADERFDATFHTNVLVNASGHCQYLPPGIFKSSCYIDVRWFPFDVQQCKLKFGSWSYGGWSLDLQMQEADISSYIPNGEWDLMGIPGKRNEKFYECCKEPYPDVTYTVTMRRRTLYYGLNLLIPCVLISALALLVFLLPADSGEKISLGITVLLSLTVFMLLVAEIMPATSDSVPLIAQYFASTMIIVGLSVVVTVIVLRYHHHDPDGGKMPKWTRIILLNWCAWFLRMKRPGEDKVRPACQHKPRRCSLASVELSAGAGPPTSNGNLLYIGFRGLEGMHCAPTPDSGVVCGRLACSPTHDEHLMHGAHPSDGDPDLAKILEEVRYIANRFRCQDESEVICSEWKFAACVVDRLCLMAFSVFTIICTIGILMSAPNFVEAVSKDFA
T1 sequence (Q05941 23-502): as above
T3 sequence (P09483 31-630): as the sequence (P09483 31-630) above
T3 sequence (P12390 25-500): as the sequence (P12390 25-500) above

SMILES	selectivity α7 over α4β2 (in words) (rat alpha7 receptor [2])	Emax (rat alpha7 receptor [2]; [15]) [%]	α7 receptor activation (in words) (rat alpha7 receptor [2])	EC50 (rat alpha7 receptor [2]) [µM]	Emax (rat alpha7 receptor [2]; [16]) [%]	alpha4beta2 antagonism: % of antagonism of acetylcholine administered after drug (rat alpha4beta2 receptor [3])	inhibition at 1 µM [4, 17] [%]	inhibition at 1 µM [4, 18] [%]	IC50 [4] [µM]	Emax (rat alpha4beta2 receptor [5]) [%]	Emax (rat alpha4beta2 receptor [6]) [%]	IC50 (rat alpha7 receptor [7]) [µM]	Oocytes Antagonist (rat alpha7 receptor [7])	alpha 7 antagonism: % of antagonism of acetylcholine administered after drug (rat alpha7 receptor [7])	neurite protection during NGF-deprivation (in words) (PC12 cells [8])	Neurite Counts (PC12 cells [8])	inhibition at 1 µM [9] [%]	further results
N[C@H](C(=O)O)c1cc(=O)[nH]o1 [ibotenic acid]	–	–	–	–	–	–	–	–	–	–	–	–	–	–	–	–	–	reduction of cholinesterase-staining cells in nucleus basalis [1]: over 80%
COc1ccc(/C=C/C=C2\CCCN=C2c2cccnc2)cc1 [4-MeOCA, E,E-3-(4-Methoxycinnamylidene)anabaseine]	selectively activate α7 receptors over α4β2	45	fully efficaciously	15.9 ± 7.9	45	34	94.1	94.1	0.054	< 5	< 2	5 ± 2.3	.104	75	Neither 2-MeOCA nor 4-MeOCA elicited neurite-protection	155 ± 23	32	times less potent (α7 activation) (rat alpha7 receptor [2]): 2-3 times
CN(C)c1ccc(/C=C/C=C2\CCCN=C2c2cccnc2)cc1 [DMAC, E,E-3-(4-dimethylaminocinnamylidene) anabaseine]	–	–	–	–	–	–	–	–	–	–	–	–	–	–	–	–	–	α7 agonist activity (in words) (rat alpha7 receptor [10]; background/literature): fully efficacious and potent α7 agonist; selectivity α7 over α4β2 / other nicotinic subtypes (in words) (rat alpha7 receptor [10]; literature): selectively activate α7 receptors over α4β2; memory-related performance (in words) [11]: memory-enhancing activity in rodents; also recorded: effective in this behavioral paradigm; long term inhibition / antagonism of α7 receptors (in words) (rat alpha7 receptor [12]): long term inhibition of α7 receptors following activation; also recorded: potent antagonist activity
C(=C\c1ccccc1)/C=C1\CCCN=C1c1cccnc1 [3-CA, E,E-3-(Cinnamylidene)anabaseine]	selectively activate α7 receptors over α4β2	92	fully efficaciously	3.2 ± 0.7	92	10	94.7	94.7	0.08	2.6	< 3	15 ± 6	.50	45	neuroprotective against neurite-loss during NGF-deprivation; also recorded: protected against NGF-deprivation neurite loss; also recorded: exhibited cytoprotective activity; also recorded: effective	185 ± 19	6.2	PC12 Cyto. (PC12 cells [13]): +?; inhibition of α7 receptors, estimated (rat alpha7 receptor [7]; 10 μM, estimated from oocyte results): less than 20%; inhibition at 10 µM (rat alpha7 receptor [7]; 10 μM, ACh application 5 min later, read-out: long term inhibition of α7 receptors): < 20%
CCO [ethanol]	–	–	–	–	–	–	–	–	–	–	–	–	–	–	–	–	–	antagonism of nicotinic receptors by ethanol (in words) [14]: alpha7 nicotinic receptors were sensitive to antagonism by ethanol while other receptor types were not affected
